# Patent US12661353B2, “SPT5 inhibitors and uses thereof” (Yeda Research and Development Co. Ltd., priority 2020, dated 2026)
# pIC50: −log10 of the molar value.
# Columns and labels:
# Spt5 activities = assay: Combined effects on the various Spt5 activities (summary of Examples 1-4); format: cell-based
# [1] = molecular target: T1, Spt5-Pol II interaction (NGN and KOW 1&2 of Spt5, coiled-coil domain of Rpb1) (Homo sapiens, UniProt P24928); assay: Split-Renilla luciferase (RL) complementation assay of Spt5-Pol II interaction; format: binding
# T1 construct: the region spanning NGN and KOW 1&2 of Spt5 and the coiled-coil (CC) domain of Rpb1; the coiled-coil (CC) domain of Rpb1, the large subunit of Pol II, were fused to N-RL and C-RL, respectively; made in house; host or cells: E. coli (pRSFDuet double expression plasmid); bacterial cell lysate used unpurified
# From the text: Plasmid construction—The mammalian expression plasmids RSV-AC/AN Renilla luciferase (pRL-AC/AN), encoding the N-terminal amino acid residues 1-229 or the C-terminus 230-311 of the Renilla luciferase (RL) were previously described in Ashkenazi et al., 2016; and Ashkenazi et al., 2017. The split-Renilla luciferase fusion plasmids were constructed by two-step PCR using the pRL-AC or pRL-AN as backbones and plasmids encoding the region spanning NGN and KOW 1&2 of human Spt5 (SEQ ID NOs: 1-3) or the coiled-coil (CC) domain of human Rpb1 (SEQ ID NOs: 4-6), respectively, as insert sources. For bacterial expression of the split-RL fusion proteins the double expression plasmid pRSFDuet was used. All constructs were verified by sequencing.
# High-throughput drug screening (HTS)—About 100,000 compounds [from MEGxp library: Pure natural compounds from plants (see Table 1 hereinbelow) were screened for their effect on Spt5-Pol II interaction (a schematic representation of the assay is shown in FIG. 1B). […] Compounds that diminished the luminescence activity by >30% were subjected for an additional screen with a bacterial lysate expressing recombinant full-length RL (diluted 1: 500 in phosphate buffer) that served as a control for false-positive compounds that inhibit the RL enzymatic activity itself (Ashkenazi et al., 2017). […]
# T1 sequence (P24928 8-370 limits assumed): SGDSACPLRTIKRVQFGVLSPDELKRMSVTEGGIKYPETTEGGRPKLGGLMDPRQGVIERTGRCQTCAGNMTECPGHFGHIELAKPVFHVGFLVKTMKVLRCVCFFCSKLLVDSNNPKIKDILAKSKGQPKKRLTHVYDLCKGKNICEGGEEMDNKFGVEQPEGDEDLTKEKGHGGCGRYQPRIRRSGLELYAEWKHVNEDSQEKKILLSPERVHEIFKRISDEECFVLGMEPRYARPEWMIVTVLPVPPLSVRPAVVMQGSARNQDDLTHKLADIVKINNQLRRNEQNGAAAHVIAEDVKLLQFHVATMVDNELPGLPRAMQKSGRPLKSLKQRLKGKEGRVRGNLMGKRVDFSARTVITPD
SMILES,"classification by effect on the various Spt5 activities, in words (Spt5 activities)",pIC50 [1]
COc1ccc(C=CC(=O)c2cc(O)ccc2O)cc1 [SPI-21],affect all the tested Spt5 activities,4.60
Nc1ccccc1SC(CC(=O)c1cccs1)c1cccs1 (stereo not shown) [SPI-18],inhibited mainly the positive activity of Spt5 with little or no effect on proximal promoter pausing,4.48
